Data reported in patent US8273754B2, “Substituted 1H-pyrazolo[3,4-D]pyrimidine-6-amine compounds” (ArQule, Inc., priority 2008, dated 2012).
Read-outs that look alike come from different tables or passages of the source.

Test system: cancer cells
Experiment: MTS cell growth inhibition assay (72 hours)
Format: cell-based
Method: Cells were maintained at 37° C., 5% CO2 in DMEM media supplemented with 1% fetal bovine serum, penicillin/streptomycin and fungizone (Invitrogen). Cells were seeded into 96-well tissue culture plates at 3000 per well and cultured at 37° C. for 18 hours. Test compounds were dissolved and diluted to 300× in DMSO then further diluted 1:40 in DMEM before addition to cells (1:7.5 dilution). Cells were incubated with test compounds for 72 hours followed by incubation with tetrazolium compound (3-(4,5-dimethylthiazol-2-yl)-5-(3-carboxymethoxyphenyl)-2-(4-sulfophenyl)-2H-tetrazolium, inner salt; MTS) and the electron coupling reagent, phenazine methosulfate (PMS) for 4 hours. […] The ability of compounds to inhibit cell growth in this assay is correlated with the reduction of dehydrogenase enzyme activity found in metabolically active cells. The measurement of the absorbance of the formazan was assessed using an ENVISION™ (Perkin Elmer) microplate reader at 492 nm. The calculated IC50 value is the concentration of the test compound that causes a 50% decrease in the absorbance. […] A=>79% inhibition, B=>50 to 79% inhibition, C=<50% inhibition.

[1] = Homo sapiens, DLD-1, 72 h, DLD-1 cells, read-out: DLD-1 MTS 72 hr at 10 μM
[2] = Homo sapiens, KATO III, 72 h, KATO III cells, read-out: KATO III MTS 72 hr at 10 μM
[3] = Homo sapiens, MDA-MB-231, 72 h, MDA-MB-231 cells, read-out: MDA-MB-231 MTS 72 hr at 10 μM
[4] = Homo sapiens, NCI-H1299, 72 h, NCI-H1299 cells, read-out: NCI-H1299 MTS 72 hr at 10 μM
[5] = PaCa-2, 72 h, PACA-2 cells, read-out: PACA-2 MTS 72 hr at 10 μM

| Compound | inhibition at 10 µM [1] [%] | inhibition at 10 µM [2] [%] | inhibition at 10 µM [3] [%] | inhibition at 10 µM [4] [%] | inhibition at 10 µM [5] [%] |
| --- | --- | --- | --- | --- | --- |
| CCc1ccc(S(=O)(=O)N2CC(Nc3nc(N)nc4[nH]ncc34)Cc3ccccc32)cc1 (centres unmarked) [Compound 59, N4-(1-(4-ethylphenylsulfonyl)-1,2,3,4-tetrahydroquinolin-3-yl)-1H-pyrazolo[3,4-d]pyrimidine-4,6-diamine] | < 50 | < 50 | < 50 | < 50 | < 50 |
| COc1ccc(-c2ccc(S(=O)(=O)N3CC(Nc4nc(N)nc5[nH]ncc45)Cc4ccccc43)cc2)cc1 (centres unmarked) [Compound 60, N4-(1-(4′-methoxybiphenyl-4-ylsulfonyl)-1,2,3,4-tetrahydroquinolin-3-yl)-1H-pyrazolo[3,4-d]pyrimidine-4,6-diamine] | < 50 | < 50 | < 50 | < 50 | < 50 |
| CCC(C)(C)c1ccc(S(=O)(=O)N2CC(Nc3nc(N)nc4[nH]ncc34)Cc3ccccc32)cc1 (centres unmarked) [Compound 61, N4-(1-(4-tert-pentylphenylsulfonyl)-1,2,3,4-tetrahydroquinolin-3-yl)-1H-pyrazolo[3,4-d]pyrimidine-4,6-diamine] | < 50 | < 50 | < 50 | < 50 | < 50 |
| Nc1nc(NC2Cc3ccccc3N(S(=O)(=O)c3ccc(Br)c(F)c3)C2)c2cn[nH]c2n1 (centres unmarked) [Compound 62, N4-(1-(4-bromo-3-fluorophenylsulfonyl)-1,2,3,4-tetrahydroquinolin-3-yl)-1H-pyrazolo[3,4-d]pyrimidine-4,6-diamine] | < 50 | < 50 | < 50 | < 50 | < 50 |
| COc1ccc(-c2cccc(S(=O)(=O)N3CC(Nc4nc(N)nc5[nH]ncc45)Cc4ccccc43)c2)cc1 (centres unmarked) [Compound 63, N4-(1-(4′-methoxybiphenyl-3-ylsulfonyl)-1,2,3,4-tetrahydroquinolin-3-yl)-1H-pyrazolo[3,4-d]pyrimidine-4,6-diamine] | 50 to 79 | > 79 | < 50 | 50 to 79 | 50 to 79 |
| Nc1nc(NC2Cc3ccccc3N(S(=O)(=O)c3ccc(Oc4ccccc4)nc3)C2)c2cn[nH]c2n1 (centres unmarked) [Compound 64, N4-(1-(6-phenoxypyridin-3-ylsulfonyl)-1,2,3,4-tetrahydroquinolin-3-yl)-1H-pyrazolo[3,4-d]pyrimidine-4,6-diamine] | < 50 | < 50 | < 50 | < 50 | < 50 |
| Nc1nc(NC2Cc3ccccc3N(S(=O)(=O)c3ccc(-c4ccc(F)cc4)cc3)C2)c2cn[nH]c2n1 (centres unmarked) [Compound 65, N4-(1-(4′-fluorobiphenyl-4-ylsulfonyl)-1,2,3,4-tetrahydroquinolin-3-yl)-1H-pyrazolo[3,4-d]pyrimidine-4,6-diamine] | 50 to 79 | > 79 | 50 to 79 | 50 to 79 | > 79 |
| Nc1nc(NC2Cc3ccccc3N(S(=O)(=O)c3cc(C(F)(F)F)ccc3Cl)C2)c2cn[nH]c2n1 (centres unmarked) [Compound 66, N4-(1-(2-chloro-5-(trifluoromethyl)phenylsulfonyl)-1,2,3,4-tetrahydroquinolin-3-yl)-1H-pyrazolo[3,4-d]pyrimidine-4,6-diamine] | < 50 | < 50 | < 50 | < 50 | < 50 |
| Nc1nc(NC2Cc3ccccc3N(S(=O)(=O)c3ccsc3)C2)c2cn[nH]c2n1 (centres unmarked) [Compound 67, N4-(1-(thiophen-3-ylsulfonyl)-1,2,3,4-tetrahydroquinolin-3-yl)-1H-pyrazolo[3,4-d]pyrimidine-4,6-diamine] | < 50 | < 50 | < 50 | < 50 | < 50 |
| Nc1nc(NC2Cc3ccccc3N(S(=O)(=O)c3ccc(OC(F)(F)F)cc3)C2)c2cn[nH]c2n1 (centres unmarked) [Compound 68, N4-(1-(4-(trifluoromethoxy)phenylsulfonyl)-1,2,3,4-tetrahydroquinolin-3-yl)-1H-pyrazolo[3,4-d]pyrimidine-4,6-diamine] | < 50 | < 50 | < 50 | < 50 | < 50 |
| Cc1ccc(Oc2ccc(S(=O)(=O)N3CC(Nc4nc(N)nc5[nH]ncc45)Cc4ccccc43)cc2)cc1 (centres unmarked) [Compound 69, N4-(1-(4-(p-tolyloxy)phenylsulfonyl)-1,2,3,4-tetrahydroquinolin-3-yl)-1H-pyrazolo[3,4-d]pyrimidine-4,6-diamine] | > 79 | > 79 | > 79 | > 79 | > 79 |
| Nc1nc(NC2Cc3ccccc3N(S(=O)(=O)c3cccc(OC(F)(F)F)c3)C2)c2cn[nH]c2n1 (centres unmarked) [Compound 70, N4-(1-(3-(trifluoromethoxy)phenylsulfonyl)-1,2,3,4-tetrahydroquinolin-3-yl)-1H-pyrazolo[3,4-d]pyrimidine-4,6-diamine] | < 50 | 50 to 79 | < 50 | < 50 | < 50 |
| Cc1ccccc1Oc1cccc(S(=O)(=O)N2CC(Nc3nc(N)nc4[nH]ncc34)Cc3ccccc32)c1 (centres unmarked) [Compound 71, N4-(1-(3-(o-tolyloxy)phenylsulfonyl)-1,2,3,4-tetrahydroquinolin-3-yl)-1H-pyrazolo[3,4-d]pyrimidine-4,6-diamine] | > 79 | > 79 | > 79 | 50 to 79 | > 79 |
| COc1cc(C)c(S(=O)(=O)N2CC(Nc3nc(N)nc4[nH]ncc34)Cc3ccccc32)c(C)c1C (centres unmarked) [Compound 72, N4-(1-(4-methoxy-2,3,6-trimethylphenylsulfonyl)-1,2,3,4-tetrahydroquinolin-3-yl)-1H-pyrazolo[3,4-d]pyrimidine-4,6-diamine] | > 79 | > 79 | 50 to 79 | < 50 | > 79 |
| COC(=O)CCc1ccc(S(=O)(=O)N2CC(Nc3nc(N)nc4[nH]ncc34)Cc3ccccc32)cc1 (centres unmarked) [Compound 73, methyl 3-(4-(3-(6-amino-1H-pyrazolo[3,4-d]pyrimidin-4-ylamino)-3,4-dihydroquinolin-1(2H)-ylsulfonyl)phenyl)propanoate] | < 50 | < 50 | < 50 | < 50 | < 50 |
| Nc1nc(NC2Cc3ccccc3N(S(=O)(=O)c3ccc(C(F)(F)F)cc3Cl)C2)c2cn[nH]c2n1 (centres unmarked) [Compound 74, N4-(1-(2-chloro-4-(trifluoromethyl)phenylsulfonyl)-1,2,3,4-tetrahydroquinolin-3-yl)-1H-pyrazolo[3,4-d]pyrimidine-4,6-diamine] | < 50 | < 50 | < 50 | < 50 | < 50 |
